Measurements from publication PMC3265250 (Chemotherapy Research and Practice, 2011).

Experiments:
[1] = system: S. aureus ATCC 6538P; assay: MIC, microbroth dilution, referential strain ATCC 6538P; type: cell-based, Staphylococcus aureus; settings: ATCC 6538P; microbroth dilution, MHB II, 5 × 10^5 CFU/mL, 18 h at 37°C, triplicate
Procedure: (§1) A total number of 24 SA strains were obtained from patients with erythrodermia and 3 reference SA ones from the American Type Culture Collection: 6538P ATCC, 9144 ATCC, and 25923 ATCC (Institute of Experimental Therapy, Wroclaw, Poland). […] Polypropylene 96-well plates (Sigma-Aldrich) were incubated for 18 h at 37°C. MIC was taken as the lowest drug concentration at which a noticeable growth was inhibited. […] The experiments were performed in triplicate.

[2] = system: S. aureus ATCC 9144; assay: MIC, microbroth dilution, referential strain ATCC 9144; type: cell-based, Staphylococcus aureus; settings: ATCC 9144; microbroth dilution, MHB II, 5 × 10^5 CFU/mL, 18 h at 37°C, triplicate
[3] = system: S. aureus ATCC 25923; assay: MIC, microbroth dilution, referential strain ATCC 25923; type: cell-based, Staphylococcus aureus; settings: ATCC 25923; microbroth dilution, MHB II, 5 × 10^5 CFU/mL, 18 h at 37°C, triplicate
Procedure: as §1

[4] = system: Superantigen negative S. aureus (10); settings: for MIC 50% / MIC 90% / MIC Range / MBC Range: superantigen negative clinical isolates (10), triplicate; for MIC 50% / MIC 90% / MIC Range: microbroth dilution, MHB II, 5 × 10^5 CFU/mL, 18 h at 37°C; for MBC Range: more than 99.9% reduction of the initial inoculums
[5] = system: Superantigen positive S. aureus (14); settings: for MIC 50% / MIC 90% / MIC Range / MBC Range: superantigen positive clinical isolates (14), triplicate; for MIC 50% / MIC 90% / MIC Range: microbroth dilution, MHB II, 5 × 10^5 CFU/mL, 18 h at 37°C; for MBC Range: more than 99.9% reduction of the initial inoculums
[6] = system: clinical isolates of SA; settings: 18 h

CCCCCCCCCC(=O)N[C@@H](Cc1c[nH]c2ccccc12)C(=O)N[C@H](CC(N)=O)C(=O)N[C@@H](CC(=O)O)C(=O)N[C@@H]1C(=O)NCC(=O)N[C@@H](CCCN)C(=O)N[C@@H](CC(=O)O)C(=O)N[C@H](C)C(=O)N[C@@H](CC(=O)O)C(=O)NCC(=O)N[C@H](CO)C(=O)N[C@@H]([C@H](C)CC(=O)O)C(=O)N[C@@H](CC(=O)c2ccccc2N)C(=O)O[C@@H]1C [Daptomycin, daptomycin]
2 mg/L: MIC [1] | MIC [2] | MIC [3] | MBC 50% [4] | MBC 90% [4] | MIC 90% [4] | MBC 50% [5] | MIC 90% [5]
1 mg/L: MIC 50% [4] | MIC 50% [5]
4 mg/L: MBC 90% [5]
1 to 4 mg/L: MIC Range [4] | MBC Range [4] | MIC Range [5] | MBC Range [5] | MICs values (range) [6]

CCCCCCCCCCCCCCCC(=O)N[C@@H](CCCCN)C(=O)N[C@@H](CCCCN)C(N)=O [Lipopeptide, Pal-KK-NH2]
8 mg/L: MBC 90% [4] | MBC 90% [5]
1 to 8 mg/L: MIC Range [4] | MIC Range [5] | MIC values (range) [6]
2 mg/L: MIC [1] | MIC [2] | MIC 50% [4] | MIC 50% [5]
4 mg/L: MIC [3] | MBC 50% [4] | MIC 90% [4] | MBC 50% [5] | MIC 90% [5]
2 to 8 mg/L: MBC Range [4] | MBC Range [5]

CC(C)C[C@H](NC(=O)[C@H](CCCNC(=N)N)NC(=O)CNC(=O)CNC(=O)[C@@H](N)CCCNC(=N)N)C(=O)N[C@H]1CSSC[C@@H](C(=O)N[C@H](C(=O)NCC(=O)N[C@@H](CCCNC(=N)N)C(N)=O)C(C)C)NC(=O)[C@H](C(C)C)NC(=O)[C@@H]2CSSC[C@H](NC(=O)[C@H](Cc3ccc(O)cc3)NC1=O)C(=O)N[C@@H](CCCNC(=N)N)C(=O)N[C@@H](CCCNC(=N)N)C(=O)N[C@@H](CCCNC(=N)N)C(=O)N[C@@H](Cc1ccccc1)C(=O)N2 [Protegrin 1, protegrin 1]
2 mg/L: MIC [2] | MIC 50% [4] | MIC 50% [5]
1 to 4 mg/L: MIC Range [4] | MIC Range [5]
8 mg/L: MBC 90% [4] | MBC 90% [5]
1 to 8 mg/L: MIC values (range) [6]
4 mg/L: MIC [1] | MIC [3] | MBC 50% [4] | MIC 90% [4] | MBC 50% [5] | MIC 90% [5]
2 to 8 mg/L: MBC Range [4] | MBC Range [5]
